Assay results taken from patent publication US20230416205A1, “COMPOUNDS, COMPOSITIONS, AND METHODS” (Denali Therapeutics Inc, priority 2020, published 2023).
Like-named read-outs stand apart in the source and are kept apart here.

System: NLRP3
Assay: IL-1β secretion assay in PMA-differentiated, LPS/nigericin-stimulated THP-1 cells (384-well, ELISA read-out)
Assay type: cell-based, human
Settings: Homo sapiens
Outline: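 Secreted IL-1β quantified by capture ELISA from supernatants of PMA-differentiated THP-1 cells (30K per well). Sequence: LPS 25 ng/mL priming 2 h, compound 1 h, nigericin 2 h; dose-responses normalized between high (LPS plus 5 μM nigericin) and low (LPS alone) controls.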

[1] = THP-1, IL-1β secretion, PMA-differentiated THP-1 cells, LPS then nigericin stimulation, ELISA read at 450 nm, read-out: Activity
[2] = THP-1, Table 4, IL-1β secretion, LPS/nigericin-stimulated THP-1 cells, read-out: IC50

Compound | IC50 [1] [µM] | IC50 [2] [µM]
O=C(CN1CC2(CC2)c2cc(Br)ccc2C1=O)Nc1ncc2ccccc2n1 [Example 197, 2-(6-bromo-1-oxospiro[3H-isoquinoline-4,1′-cyclopropane]-2-yl)-N-quinazolin-2-ylacetamide] | < 10 | 1.25
O=C(CN1CC2(CC2)c2cc(Br)ccc2C1=O)Nc1ccc2ccccc2n1 [Example 198, 2-(6-bromo-1-oxospiro[3H-isoquinoline-4,1′-cyclopropane]-2-yl)-N-quinolin-2-ylacetamide] | < 10 | 1.5
O=C(CN1CC2(CC2)c2cc(Br)ccc2C1=O)Nc1ccc2cccnc2n1 [Example 199, 2-(6-bromo-1-oxospiro[3H-isoquinoline-4,1′-cyclopropane]-2-yl)-N-(1,8-naphthyridin-2-yl)acetamide] | < 10 | 1.37
O=C(CN1CC2(CC2)c2cc(Br)ccc2C1=O)Nc1ccc2cncn2c1 [Example 201, 2-(6-bromo-1-oxospiro[3H-isoquinoline-4,1′-cyclopropane]-2-yl)-N-imidazo[1,5-a]pyridin-6-ylacetamide] | < 10 | 1.32
Cc1cnc(NC(=O)CN2CC3(CC3)c3cc(Br)ccc3C2=O)nc1 [Example 202, 2-(6-bromo-1-oxospiro[3H-isoquinoline-4,1′-cyclopropane]-2-yl)-N-(5-methylpyrimidin-2-yl)acetamide] | < 10 | 0.187
CCc1cnc(NC(=O)CN2CC3(CC3)c3cc(Br)ccc3C2=O)nc1 [Example 204, 2-(6-bromo-1-oxospiro[3H-isoquinoline-4,1′-cyclopropane]-2-yl)-N-(5-ethylpyrimidin-2-yl)acetamide] | < 10 | 0.646
O=C(CN1CC2(CC2)c2cc(Br)ccc2C1=O)Nc1nc2ccccc2o1 [Example 205, N-(1,3-benzoxazol-2-yl)-2-(6-bromo-1-oxospiro[3H-isoquinoline-4,1′-cyclopropane]-2-yl)acetamide] | < 10 | 0.306
O=C(CN1CC2(CC2)c2cc(Br)ccc2C1=O)Nc1ccc2cnccc2n1 [Example 206, 2-(6-bromo-1-oxospiro[3H-isoquinoline-4,1′-cyclopropane]-2-yl)-N-(1,6-naphthyridin-2-yl)acetamide] | < 10 | 1.26
N#Cc1ccc2nc(NC(=O)CN3CC4(CC4)c4cc(Br)ccc4C3=O)oc2c1 [Example 207, 2-(6-bromo-1-oxospiro[3H-isoquinoline-4,1′-cyclopropane]-2-yl)-N-(6-cyano-1,3-benzoxazol-2-yl)acetamide] | < 10 | 0.487
O=C(CN1CC2(CC2)c2cc(Br)ccc2C1=O)Nc1ccc(F)cn1 [Example 208, 2-(6-bromo-1-oxospiro[3H-isoquinoline-4,1′-cyclopropane]-2-yl)-N-(5-fluoropyridin-2-yl)acetamide] | < 10 | 0.709
O=C(CN1CC2(CC2)c2cc(Br)ccc2C1=O)Nc1nc2ncccc2o1 [Example 209, 2-(6-bromo-1-oxo-spiro[3H-isoquinoline-4,1′-cyclopropane]-2-yl)-N-oxazolo[4,5-b]pyridin-2-yl-acetamide] | < 10 | 3.56
O=C(CN1CC2(CC2)c2cc(Br)ccc2C1=O)Nc1nc2cnccc2o1 [Example 210, 2-(6-bromo-1-oxo-spiro[3H-isoquinoline-4,1′-cyclopropane]-2-yl)-N-oxazolo[4,5-c]pyridin-2-yl-acetamide] | < 10 | 0.822
O=C(CN1CC2(CC2)c2cc(Br)ccc2C1=O)Nc1nc2cccnc2o1 [Example 211, 2-(6-bromo-1-oxo-spiro[3H-isoquinoline-4,1′-cyclopropane]-2-yl)-N-oxazolo[5,4-b]pyridin-2-yl-acetamide] | < 10 | 1.18
O=C(CN1CC2(CC2)c2cc(Br)ccc2C1=O)Nc1nc2ccncc2o1 [Example 212, 2-(6-bromo-1-oxo-spiro[3H-isoquinoline-4,1′-cyclopropane]-2-yl)-N-oxazolo[5,4-c]pyridin-2-yl-acetamide] | < 10 | 0.589
O=C(CN1CC2(CC2)c2cc(Br)ccc2C1=O)Nc1ncc2c(n1)COC2 [Example 213, 2-(6-bromo-1-oxospiro[3H-isoquinoline-4,1′-cyclopropane]-2-yl)-N-(5,7-dihydrofuro[3,4-d]pyrimidin-2-yl)acetamide] | < 10 | 1.34
O=C(CN1CC2(CC2)c2cc(Br)ccc2C1=O)Nc1nccc(=O)[nH]1 [Example 214, 2-(6-bromo-1-oxospiro[3H-isoquinoline-4,1′-cyclopropane]-2-yl)-N-(6-oxo-1H-pyrimidin-2-yl)acetamide] | < 10 | 7.5
O=C(CN1CC2(CC2)c2cc(F)ccc2C1=O)Nc1ncc(F)cn1 [Example 215, 2-(6-fluoro-1-oxospiro[3H-isoquinoline-4,1′-cyclopropane]-2-yl)-N-(5-fluoropyrimidin-2-yl)acetamide] | < 10 | 6.86
Cc1cc(NC(=O)CN2CC3(CC3)c3cc(Br)ccc3C2=O)nc(C)n1 [Example 216, 2-(6-bromo-1-oxospiro[3H-isoquinoline-4,1′-cyclopropane]-2-yl)-N-(2,6-dimethylpyrimidin-4-yl)acetamide] | < 10 | 3.98
Cc1cnc(NC(=O)CN2CC3(CC3)c3cc(Br)ccc3C2=O)nc1C [Example 217, 2-(6-bromo-1-oxospiro[3H-isoquinoline-4,1′-cyclopropane]-2-yl)-N-(4,5-dimethylpyrimidin-2-yl)acetamide] | < 10 | 0.862
Cn1ncnc1NC(=O)CN1CC2(CC2)c2cc(Br)ccc2C1=O [Example 218, 2-(6-bromo-1-oxospiro[3H-isoquinoline-4,1′-cyclopropane]-2-yl)-N-(2-methyl-1,2,4-triazol-3-yl)acetamide] | < 10 | 9.18
N#Cc1ccc2oc(NC(=O)CN3CC4(CC4)c4cc(Br)ccc4C3=O)nc2c1 [Example 219, 2-(6-bromo-1-oxospiro[3H-isoquinoline-4,1′-cyclopropane]-2-yl)-N-(5-cyano-1,3-benzoxazol-2-yl)acetamide] | < 10 | 1.62
N#Cc1cnc(NC(=O)CN2C[C@@]3(C[C@@H]3F)c3c(ccc(C4CC4)c3F)C2=O)nc1 [Example 230, 2-[(2′s,4r)-6-cyclopropyl-2′,5-difluoro-1-oxospiro[3H-isoquinoline-4,1′-cyclopropane]-2-yl]-N-(5-cyanopyrimidin-2-yl)acetamide] | < 10 | 0.051
O=C(CN1C[C@]2(C[C@H]2F)c2cc(C3CC3)ccc2C1=O)Nc1ncc(F)cn1 [Example 231] | < 10 | 0.05
O=C(CN1C[C@]2(C[C@H]2F)c2cc(C3CC3)ccc2C1=O)Nc1ncc(Cl)cn1 [Example 232] | < 10 | 0.028
N#Cc1cnc(NC(=O)CN2C[C@]3(C[C@H]3F)c3cc(C4CC4)ccc3C2=O)nc1 [Example 233] | < 10 | 0.045
O=C(CN1C[C@]2(C[C@H]2F)c2cc(I)ccc2C1=O)Nc1ncc(F)cn1 [Example 246] | < 10 | 0.006
O=C(CN1C[C@]2(C[C@H]2F)c2cc(I)ccc2C1=O)Nc1ncccn1 [Example 247] | < 10 | 0.01
O=C(CN1C[C@]2(C[C@H]2F)c2cc(C3(F)CC3)ccc2C1=O)Nc1ncc(F)cn1 [Example 249] | < 10 | 0.015
